Experimental data published in paper PMC4910235, “Selenophene and thiophene-core estrogen receptor ligands that inhibit motility and development of parasitic stages of Haemonchus contortus” (Parasites & Vectors, 2016).
“Also recorded” adds a separate entry of the source.

Experiments:
ERα = biological target: T1, ERα (Homo sapiens, UniProt P03372); test: 3×ERE-luciferase reporter gene assay in HEK 293 T cells, ERα; assay type: cell-based
T1 construct: expressed in transfected cells; host or cells: HEK 293 T
T1 sequence (P03372 1-595): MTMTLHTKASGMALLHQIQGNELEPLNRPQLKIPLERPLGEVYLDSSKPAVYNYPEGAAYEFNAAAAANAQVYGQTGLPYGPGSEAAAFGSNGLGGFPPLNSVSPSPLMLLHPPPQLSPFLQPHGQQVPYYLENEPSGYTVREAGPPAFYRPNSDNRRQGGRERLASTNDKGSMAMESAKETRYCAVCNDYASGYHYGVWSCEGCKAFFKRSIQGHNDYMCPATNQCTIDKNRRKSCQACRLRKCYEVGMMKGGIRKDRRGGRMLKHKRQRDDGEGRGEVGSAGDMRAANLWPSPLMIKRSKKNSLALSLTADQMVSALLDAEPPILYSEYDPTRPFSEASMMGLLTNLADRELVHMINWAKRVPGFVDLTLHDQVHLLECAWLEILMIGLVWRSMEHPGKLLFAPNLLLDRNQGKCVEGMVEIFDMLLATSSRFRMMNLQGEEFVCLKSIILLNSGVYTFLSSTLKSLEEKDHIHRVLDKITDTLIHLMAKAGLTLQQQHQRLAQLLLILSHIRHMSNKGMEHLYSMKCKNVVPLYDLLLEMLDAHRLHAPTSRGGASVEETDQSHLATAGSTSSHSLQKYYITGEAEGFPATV
Description: (§1) Cells in phenol red-free DMEM with 10 % FBS were plated. […] The next day, the cells were treated with increasing doses of ER ligands diluted in phenol red-free DMEM with 10 % FBS. After 24 h, luciferase activity was measured using the dual-luciferase reporter assay system (Promega, Fitchburg, USA) performed according to the manufacturer’s protocol.

[1] = biological target: T2, human ERα ligand binding domain (Homo sapiens, UniProt P03372); test: Competitive fluorometric receptor-binding assay, ERα; conditions: estradiol = 100 %; fluorescence polarisation, coumestrol tracer
T2 sequence (P03372 311-547 limits assumed): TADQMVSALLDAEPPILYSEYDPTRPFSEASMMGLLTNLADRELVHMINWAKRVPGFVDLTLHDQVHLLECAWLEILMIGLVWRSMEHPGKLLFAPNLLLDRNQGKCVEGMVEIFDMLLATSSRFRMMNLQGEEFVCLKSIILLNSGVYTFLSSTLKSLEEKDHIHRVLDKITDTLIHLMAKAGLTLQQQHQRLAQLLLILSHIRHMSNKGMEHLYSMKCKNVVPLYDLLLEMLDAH
Description: (§2) Relative binding affinities were determined by a competitive fluorometric binding assay, as described previously. Briefly, 40 nM fluorescence tracer (coumestrol, Sigma-Aldrich) and 0.8 μM purified human ERα or ERβ ligand binding domain were diluted in 100 mM potassium phosphate buffer (pH 7.4), containing 100 μg/ml bovine γ-globulin (Sigma-Aldrich), and an equal volume of test compound was added. Incubation was for 2 h at 25 °C. The fluorescence polarisation values were measured. […] The values given are the average ± range of two independent determinations. IC50 values were calculated using a published formula [29].

[2] = biological target: human ERβ ligand binding domain (Homo sapiens, UniProt Q92731); test: Competitive fluorometric receptor-binding assay, ERβ; conditions: estradiol = 100 %; fluorescence polarisation, coumestrol tracer
Description: as §2

ERβ = biological target: T3, ERβ (Homo sapiens, UniProt Q92731); test: 3×ERE-luciferase reporter gene assay in HEK 293 T cells, ERβ; assay type: cell-based
T3 construct: expressed in transfected cells; host or cells: HEK 293 T
Description: as §1

[3] = percentage of 10^-8 M 17β-estradiol, mean ± SD

T3 sequence (Q92731 whole entry): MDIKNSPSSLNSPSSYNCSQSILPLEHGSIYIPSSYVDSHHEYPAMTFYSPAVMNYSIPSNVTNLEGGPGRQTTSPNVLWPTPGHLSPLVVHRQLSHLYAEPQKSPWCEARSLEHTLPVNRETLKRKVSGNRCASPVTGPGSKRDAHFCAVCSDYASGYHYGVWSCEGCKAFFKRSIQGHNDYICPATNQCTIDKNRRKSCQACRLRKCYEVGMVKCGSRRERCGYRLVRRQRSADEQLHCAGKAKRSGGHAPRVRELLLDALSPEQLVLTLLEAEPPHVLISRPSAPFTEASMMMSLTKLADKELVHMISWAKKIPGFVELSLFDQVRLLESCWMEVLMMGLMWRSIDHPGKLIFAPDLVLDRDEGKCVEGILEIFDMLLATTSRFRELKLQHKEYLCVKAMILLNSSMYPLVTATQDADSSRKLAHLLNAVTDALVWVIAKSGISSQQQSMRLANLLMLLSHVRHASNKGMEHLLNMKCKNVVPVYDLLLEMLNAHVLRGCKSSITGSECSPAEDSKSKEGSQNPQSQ
Sequence of human ERβ ligand binding domain (Q92731 264-498 limits assumed): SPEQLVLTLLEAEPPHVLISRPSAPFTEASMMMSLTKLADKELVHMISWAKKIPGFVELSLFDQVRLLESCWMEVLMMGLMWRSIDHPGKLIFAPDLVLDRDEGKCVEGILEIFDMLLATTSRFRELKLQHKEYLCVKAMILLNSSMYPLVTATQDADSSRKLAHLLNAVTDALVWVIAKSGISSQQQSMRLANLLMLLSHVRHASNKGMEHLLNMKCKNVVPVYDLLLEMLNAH

| profile on ERα (agonist/antagonist) (ERα; luciferase reporter) | Structure (SMILES) | relative binding affinity (RBA) ERα [1] [%] | relative binding affinity (RBA) ERβ [2] [%] | IC50 (ERα; against 10^-8 M E2, read-out: Antagonist mode ERα IC50) [µM] | EC50 (ERα; doses up to 10^-5 M, read-out: Agonist mode ERα EC50) [µM] | Agonist mode ERα Efficacy (%E2) (ERα; [3]) | Antagonist mode ERα Efficacy (%E2) (ERα; [3]) | IC50 (ERβ; against 10^-8 M E2, read-out: Antagonist mode ERβ IC50) [µM] | EC50 (ERβ; doses up to 10^-5 M, read-out: Agonist mode ERβ EC50) [µM] | profile on ERβ (agonist/antagonist) (ERβ; luciferase reporter) | Antagonist mode ERβ Eff (%E2) (ERβ; [3]) |
| --- | --- | --- | --- | --- | --- | --- | --- | --- | --- | --- | --- |
| super-agonist; also recorded: agonists | Cc1cc(O)ccc1-c1ccc(-c2ccc(O)cc2F)s1 [MJ-22] |  |  |  |  |  |  |  |  |  |  |
|  | Oc1ccc(-c2ccc(-c3ccc(O)cc3Cl)[se]2)c(Cl)c1 [WZY-2] | 6.11 | 12.7 | > 10 | > 10 | -21 ± 13 | 73 ± 8 | 3.02 | > 10 | antagonist | 13.9 ± 5.3 |
